Data on 1 compound can be found in patent US5597798A, “Taxol and epidermal growth factor used to enhance treatment of ovarian cancer” (The Regents of the University of California, priority 1994, dated 1997).

This test concerns 2008/C13*5 cells. Put plainly: Cellular accumulation of DDP. In kind it is cell-based, human. The settings on record: medium alone, end of a 1-h incubation. On the procedure: Cell-associated ^195m Pt was determined by as a measure of DDP accumulation. For DDP accumulation studies, subconfluent monolayers were treated with 37° C. RPMI 1640 medium containing 20 μM [^195m Pt]-DDD. The dishes were immediately returned to the incubater. After 1 h incubation, the medium was aspirated, the cells were washed rapidly with 4° C. PBS 4 times. Two ml of 1N NaOH was added and the cells allowed to digest overnight. A forty μl aliquot was used for determination of protein content by the method of Bradford (Bradford, Anal. Biochem. 72:248-254 (1976)), and the remaining […] was counted in glass tubes on a Trak 1191 gamma counter (Tracer Analytic, EIK Grove Village, Ill.). Columns represent the mean values of 3 experiments performed with duplicate cultures. The bars represent the standard deviation.
The 2008/C13*5 cell line is 8-10-fold resistant to DDP. […] C13*5 cells were treated with appropriate concentration of DDP in the presence (.circle-solid.) or absence (0) of 10^-7 M TPA for 1 h. Drug cytotoxicity was determined by colonogenic assay on plastic dishes. Each point represents the mean values of 3 experiments performed with triplicate cultures. The bars represent the standard deviation. […] This 2.6-fold sensitization was nearly identical with the 2.5 fold sensitization observed in the DDP-sensitive 2008 cells. […]

As for `N.N.[Cl][Pt][Cl]` [cisplatin], the DDP accumulated is reported as 37.0±3 pmol/mg of protein.
